This passage reports IC50 results from patent publication US9422293B2 (priority 2006, dated 2016).

One may read the IC50 as the midpoint of a concentration-inhibition curve.

Counter-ions that a name gives are not always drawn.

The target of the experiment is rat TRPV1 (Rattus norvegicus (Rat), UniProt O35433). As to conditions: read-out: Rat IC50.
Sequence of rat TRPV1 (O35433 whole entry): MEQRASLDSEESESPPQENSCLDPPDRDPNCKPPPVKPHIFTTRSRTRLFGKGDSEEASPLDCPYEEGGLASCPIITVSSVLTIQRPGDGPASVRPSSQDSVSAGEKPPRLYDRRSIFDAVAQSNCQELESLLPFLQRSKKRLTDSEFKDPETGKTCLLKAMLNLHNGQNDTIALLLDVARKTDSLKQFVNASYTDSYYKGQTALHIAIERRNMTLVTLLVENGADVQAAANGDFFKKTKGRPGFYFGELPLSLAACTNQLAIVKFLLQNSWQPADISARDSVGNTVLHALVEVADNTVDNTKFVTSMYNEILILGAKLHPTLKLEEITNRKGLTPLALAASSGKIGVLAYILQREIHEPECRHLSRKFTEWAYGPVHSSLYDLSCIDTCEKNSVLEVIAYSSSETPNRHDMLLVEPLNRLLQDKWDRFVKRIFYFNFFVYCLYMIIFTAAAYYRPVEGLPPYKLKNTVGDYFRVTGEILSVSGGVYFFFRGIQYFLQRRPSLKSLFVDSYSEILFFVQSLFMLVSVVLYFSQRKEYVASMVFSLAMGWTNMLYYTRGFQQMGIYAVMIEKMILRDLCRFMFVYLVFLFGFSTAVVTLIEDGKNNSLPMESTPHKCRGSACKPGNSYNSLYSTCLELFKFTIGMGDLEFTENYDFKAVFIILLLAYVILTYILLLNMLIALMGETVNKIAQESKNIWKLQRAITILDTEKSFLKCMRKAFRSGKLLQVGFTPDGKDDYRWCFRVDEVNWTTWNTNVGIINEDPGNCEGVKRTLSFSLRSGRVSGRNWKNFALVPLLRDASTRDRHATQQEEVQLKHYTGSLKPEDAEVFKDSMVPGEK
For the compound `FC(F)(F)c1cccnc1N1CCc2nc(N3CCCCCC3)nc(NCc3ccc(Cl)c(Cl)c3)c2CC1` [Example 255, 2-Azepan-1-yl-N-[(3,4-dichlorophenyl)methyl]-7-[3-(trifluoromethyl)pyridin-2-yl]-6,7,8,9-tetrahydro-5H-pyrimido[4,5-d]azepin-4-amine], the IC50 amounted to 700 nM.

In the case of `COCCN(C)c1nc2c(c(Nc3ccc(C(C)(C)C)cc3)n1)CCN(c1ncccc1C(F)(F)F)CC2` [Example 257, N^4-[4-(1,1-Dimethylethyl)phenyl]-N^2-methyl-N^2-[2-(methyloxy)ethyl]-7-[3-(trifluoromethyl)pyridin-2-yl]-6,7,8,9-tetrahydro-5H-pyrimido[4,5-d]azepine-2,4-diamine], the IC50 came to 20 nM.

On to `OCC1CCCCN1c1nc2c(c(Nc3ccc(C(F)(F)F)cc3)n1)CCN(c1ncccc1C(F)(F)F)CC2` (centres unmarked) [Example 259, [1-(4-{[4-(Trifluoromethyl)phenyl]amino}-7-[3-(trifluoromethyl)pyridin-2-yl]-6,7,8,9-tetrahydro-5H-pyrimido[4,5-d]azepin-2-yl)piperidin-2-yl]methanol], for which the IC50 was found to be 90 nM.

`OC[C@@H]1CCCN1c1nc2c(c(Nc3ccc(C(F)(F)F)cc3)n1)CCN(c1ncccc1C(F)(F)F)CC2` [Example 260, [(2S)-1-(4-{[4-(Trifluoromethyl)phenyl]amino}-7-[3-(trifluoromethyl)pyridin-2-yl]-6,7,8,9-tetrahydro-5H-pyrimido[4,5-d]azepin-2-yl)pyrrolidin-2-yl]methanol hydrochloride salt]: the IC50 was found to be 50 nM.

For the compound `OC[C@H]1CCCN1c1nc2c(c(Nc3ccc(C(F)(F)F)cc3)n1)CCN(c1ncccc1C(F)(F)F)CC2` [Example 261, [(2R)-1-(4-{[4-(Trifluoromethyl)phenyl]amino}-7-[3-(trifluoromethyl)pyridin-2-yl]-6,7,8,9-tetrahydro-5H-pyrimido[4,5-d]azepin-2-yl)pyrrolidin-2-yl]methanol hydrochloride salt], the IC50 is 340 nM.

In the case of `OC[C@@H]1CCCN1c1nc2c(c(Nc3ccc(C(F)(F)F)cn3)n1)CCN(c1ncccc1C(F)(F)F)CC2` [Example 262, [(2S)-1-(7-[3-(Trifluoromethyl)pyridin-2-yl]-4-{[5-(trifluoromethyl)pyridin-2-yl]amino}-6,7,8,9-tetrahydro-5H-pyrimido[4,5-d]azepin-2-yl)pyrrolidin-2-yl]methanol hydrochloride salt], the concentration for half-maximal inhibition (IC50) amounted to 1640 nM.

Turning to `FC(F)(F)c1ccc(Nc2nc(N[C@@H]3CCOC3)nc3c2CCN(c2ncccc2C(F)(F)F)CC3)nc1` [Example 263, N^2-[(3R)-Tetrahydrofuran-3-yl]-7-[3-(trifluoromethyl)pyridin-2-yl]-N^4-[5-(trifluoromethyl)pyridin-2-yl]-6,7,8,9-tetrahydro-5H-pyrimido[4,5-d]azepine-2,4-diamine], the IC50 was 1460 nM.

`CC(C)(C)c1ccc(Nc2nc(N[C@@H]3CCOC3)nc3c2CCN(c2ncccc2C(F)(F)F)CC3)cc1` [Example 264, N^4-[4-(1,1-Dimethylethyl)phenyl]-N^2-[(3R)-tetrahydrofuran-3-yl]-7-[3-(trifluoromethyl)pyridin-2-yl]-6,7,8,9-tetrahydro-5H-pyrimido[4,5-d]azepine-2,4-diamine]: the IC50 came out at 1300 nM.

Turning to `CC(C)N(C)c1nc2c(c(Nc3ccc(C(F)(F)F)nc3)n1)CCN(c1ncccc1C(F)(F)F)CC2` [Example 266, N^2-Methyl-N^2-(1-methylethyl)-7-[3-(trifluoromethyl)pyridin-2-yl]-N^4-[6-(trifluoromethyl)pyridin-3-yl]-6,7,8,9-tetrahydro-5H-pyrimido[4,5-d]azepine-2,4-diamine], the IC50 was determined as 450 nM.

Turning to `Cc1cc(C(F)(F)F)ccc1Nc1nc(N(C)C2CCCCC2)nc2c1CCN(c1ncccc1C(F)(F)F)CC2` [Example 267, N^2-Cyclohexyl-N^2-methyl-N^4-[2-methyl-4-(trifluoromethyl)phenyl]-7-[3-(trifluoromethyl)pyridin-2-yl]-6,7,8,9-tetrahydro-5H-pyrimido[4,5-d]azepine-2,4-diamine], the IC50 worked out at 1870 nM.

As to `FC(F)(F)c1ccc(Nc2nc(N3C4CCC3CC4)nc3c2CCN(c2ncccc2C(F)(F)F)CC3)cc1` [Example 268, 2-(7-Azabicyclo[2.2.1]hept-7-yl)-N-[4-(trifluoromethyl)phenyl]-7-[3-(trifluoromethyl)pyridin-2-yl]-6,7,8,9-tetrahydro-5H-pyrimido[4,5-d]azepin-4-amine], the IC50 was determined as 150 nM.

`Cc1cc(C(F)(F)F)ccc1Nc1nc(N2CCCC2C(C)C)nc2c1CCN(c1ncccc1C(F)(F)F)CC2` (centres unmarked) [Example 269, 2-[2-(1-Methylethyl)pyrrolidin-1-yl]-N-[2-methyl-4-(trifluoromethyl)phenyl]-7-[3-(trifluoromethyl)pyridin-2-yl]-6,7,8,9-tetrahydro-5H-pyrimido[4,5-d]azepin-4-amine]: the IC50 came out at 180 nM.

For the compound `FC(F)(F)c1ccc(Nc2nc(NCC3CCCCC3)nc3c2CCN(c2ncccc2C(F)(F)F)CC3)cn1` [Example 270, N^2-(Cyclohexylmethyl)-7-[3-(trifluoromethyl)pyridin-2-yl]-N^4-[6-(trifluoromethyl)pyridin-3-yl]-6,7,8,9-tetrahydro-5H-pyrimido[4,5-d]azepine-2,4-diamine], the IC50 is 830 nM.

`OCC1CN(c2nc3c(c(Nc4ccc(C(F)(F)F)cc4)n2)CCN(c2ncccc2C(F)(F)F)CC3)CCO1` (centres unmarked) [Example 271, [4-(4-{[4-(Trifluoromethyl)phenyl]amino}-7-[3-(trifluoromethyl)pyridin-2-yl]-6,7,8,9-tetrahydro-5H-pyrimido[4,5-d]azepin-2-yl)morpholin-2-yl]methanol]: the IC50 is 840 nM.

Take `CC(C)N(C)c1nc2c(c(Nc3ccc(C(F)(F)F)cc3)n1)CCN(c1ncccc1C(F)(F)F)CC2` [Example 272, N^2-Methyl-N^2-(1-methylethyl)-N^4-[4-(trifluoromethyl)phenyl]-7-[3-(trifluoromethyl)pyridin-2-yl]-6,7,8,9-tetrahydro-5H-pyrimido[4,5-d]azepine-2,4-diamine]: the IC50 is 200 nM.

Regarding `Cc1cc(C(F)(F)F)ccc1Nc1nc(N2CCOC(CO)C2)nc2c1CCN(c1ncccc1C(F)(F)F)CC2` (centres unmarked) [Example 273, [4-(4-{[2-Methyl-4-(trifluoromethyl)phenyl]amino}-7-[3-(trifluoromethyl)pyridin-2-yl]-6,7,8,9-tetrahydro-5H-pyrimido[4,5-d]azepin-2-yl)morpholin-2-yl]methanol], the IC50 turned out to be 680 nM.

Take `CN(c1nc2c(c(Nc3ccc(C(F)(F)F)nc3)n1)CCN(c1ncccc1C(F)(F)F)CC2)C1CCCCC1` [Example 275, N^2-Cyclohexyl-N^2-methyl-7-[3-(trifluoromethyl)pyridin-2-yl]-N^4-[6-(trifluoromethyl)pyridin-3-yl]-6,7,8,9-tetrahydro-5H-pyrimido[4,5-d]azepine-2,4-diamine]: the IC50 came out at 190 nM.

As for `Cc1ccccc1Nc1nc2c(c(Nc3ccc(C(F)(F)F)cc3)n1)CCN(c1ncccc1C(F)(F)F)CC2` [Example 278, N^2-(2-Methylphenyl)-N^4-[4-(trifluoromethyl)phenyl]-7-[3-(trifluoromethyl)pyridin-2-yl]-6,7,8,9-tetrahydro-5H-pyrimido[4,5-d]azepine-2,4-diamine trifluoroacetic acid salt], the IC50 is 670 nM.

Consider `Cc1cccc(Nc2nc3c(c(Nc4ccc(C(F)(F)F)cc4)n2)CCN(c2ncccc2C(F)(F)F)CC3)c1` [Example 279, N^2-(3-Methylphenyl)-N^4-[4-(trifluoromethyl)phenyl]-7-[3-(trifluoromethyl)pyridin-2-yl]-6,7,8,9-tetrahydro-5H-pyrimido[4,5-d]azepine-2,4-diamine trifluoroacetic acid salt], for which the IC50 is over 6670 nM.

Regarding `CC(C)c1nc2c(c(Nc3ccc(C(F)(F)F)cc3)n1)CCN(c1ncccc1NS(C)(=O)=O)CC2` [Example 281, N-{2-[2-(1-Methylethyl)-4-{[4-(trifluoromethyl)phenyl]amino}-5,6,8,9-tetrahydro-7H-pyrimido[4,5-d]azepin-7-yl]pyridin-3-yl}methanesulfonamide], the IC50 was found to be 2620 nM.

Regarding `CC(C)c1nc2c(c(Nc3ccc(C(F)(F)F)nc3)n1)CCN(c1ncccc1S(C)(=O)=O)CC2` [Example 282, 2-(1-Methylethyl)-7-[3-(methylsulfonyl)pyridin-2-yl]-N-[6-(trifluoromethyl)pyridin-3-yl]-6,7,8,9-tetrahydro-5H-pyrimido[4,5-d]azepin-4-amine], the IC50 is 130 nM.

Take `CS(=O)(=O)c1cccnc1N1CCc2ncnc(Nc3ccc(C(F)(F)F)cc3)c2CC1` [Example 283, 7-[3-(Methylsulfonyl)pyridin-2-yl]-N-[4-(trifluoromethyl)phenyl]-6,7,8,9-tetrahydro-5H-pyrimido[4,5-d]azepin-4-amine]: the IC50 was found to be 8520 nM.

As to `CC(C)c1nc2c(c(Nc3ccc(C(C)(C)C)cc3)n1)CCN(c1ncccc1N)CC2` [Example 284, 7-(3-Aminopyridin-2-yl)-N-[4-(1,1-dimethylethyl)phenyl]-2-(1-methylethyl)-6,7,8,9-tetrahydro-5H-pyrimido[4,5-d]azepin-4-amine], the IC50 worked out at 550 nM.

With `CC(C)c1nc2c(c(Nc3ccc(C(F)(F)F)cc3)n1)CCN(c1ncc(C(=O)O)cc1Cl)CC2` [Example 288, 5-Chloro-6-[2-(1-methylethyl)-4-{[4-(trifluoromethyl)phenyl]amino}-5,6,8,9-tetrahydro-7H-pyrimido[4,5-d]azepin-7-yl]pyridine-3-carboxylic acid trifluoroacetic acid salt], the IC50 was found to be 2020 nM.

Consider `CC(C)c1nc2c(c(Nc3ccc(C(C)(C)C)cc3)n1)CCN(c1ncc([N+](=O)[O-])cc1C(F)(F)F)CC2` [Example 290, N-[4-(1,1-Dimethylethyl)phenyl]-2-(1-methylethyl)-7-[5-nitro-3-(trifluoromethyl)pyridin-2-yl]-6,7,8,9-tetrahydro-5H-pyrimido[4,5-d]azepin-4-amine], for which the IC50 was 100 nM.

For the compound `CC(C)c1nc2c(c(Nc3ccc(C(F)(F)F)cc3)n1)CCN(c1ncc([N+](=O)[O-])cc1C(F)(F)F)CC2` [Example 291, 2-(1-Methylethyl)-7-[5-nitro-3-(trifluoromethyl)pyridin-2-yl]-N-[4-(trifluoromethyl)phenyl]-6,7,8,9-tetrahydro-5H-pyrimido[4,5-d]azepin-4-amine], the IC50 was 170 nM.
